From patent publication US6806267B1, “Apoptosis-inducing compounds” (priority 1998, dated 2004) come the findings set out here.

Read-outs that look alike come from different tables or passages of the source.

What all share (assay type): cell-based, human
One assay relates to Cytochrome C. Kind of assay: Cytochrome C Western blot, CML cell cytosol. The following applies: K562, KYO.1, Lama 84; 16 hour treatment. As for the experimental part:
Cells (15×10^6) were harvested by centrifugation at 1800 g for 10 min at 4° C. After being washed once with ice-cold phosphate-buffered saline, the cell pellet was suspended in 100 μl of ice-cold buffer A (20 mM Hepes, pH 7.5, 10 mM KCl, 1.5 mM MgCl2, 1 mM sodium EDTA, 1 mM sodium EGTA, 1 mM dithiotreitol and 0.1 mM phenylmethylsulfonyl fluoride) supplemented with protease inhibitors (5 μg/ml pepstatin A, 10 μg/ml leupeptin and 2 μg/ml of aprotinin). The cells were left to sit on ice for 15 min and then centrifuged at 20,000 g for 20 min. The resulting supernatant was stored at −70° C. until measurement of cytochrome C. Protein determination was measured by using the Bradford assay. Equal amounts of protein were resolved by SDS-polyacrylamide gel electrophoresis in 15% gels and transferred onto nitro-cellulose. Membranes were blocked with phosphate-buffered saline/5% (w/v) dry milk and probed with anti-cytochrome C antibody. Blots were washed, incubated with goat anti-mouse IgG peroxidase conjugate and developed by ECL according to the manufacturer's recommendations.
(In general: Immunoblotting shows a protein as a band on a membrane.)

The next assay has as its system NFκB. Kind of assay: NF kappa B binding activity, Hut-78 cells. The procedure:
Cells were fractionated, and nuclear extracts were prepared as described by Stylianou et al. (1992). Briefly, cells were added to ice-cold phosphate-buffered saline and centrifuged using a swing out rotor at 136×g. They were washed in buffer A (10 mM Hepes, pH 7.9, 1.5 mM MgCl2, 10 mM KCl, […] [PMSF]) and centrifuged at 10000×g for 10 min. They were treated with buffer A+0.1% (vol/vol) Nonidet P40 on ice for 10 min. They were then centrifuged at 10000×g for 10 min and the pellet was treated with buffer C (20 mM Hepes, pH 7.9, 420 mM NaCl, 1.5 mM MgCl2, 2 mM EDTA, 20% [vol/vol] glycerol, 0.5 mM PMSF) on ice for 15 min. This material was centrifuged at 10000×g for 10 min and the supernatant was added to 75 u l of buffer D [10 mM Hepes, pH 7.9, 50 mM KCl, 0.2 mM EDTA, 20% (vol/vol) glycerol, 0.5 mM PMSF] per sample. The protein concentration in this crude nuclear extract was determined using the method of Bradford (1976). Protein (4 μg) was incubated with 10000 cpm of a ^32P-labelled oligonucleotide, containing the consensus sequence for NF kappa B, with binding buffer [40% (vol/vol) glycerol, 1 mM EDTA, 10 mM Tris, pH 7.5, 100 mM NaCl, 0.1 mg/ml nuclease free BSA] and 2 μg of poly(dI-dC) at room temperature for 30 min. Samples were resolved on a 5% native polyacrylamide gel which was subsequently dried and autoradiographed at −70° C. overnight.

The next assay has as its system caspase 3-like proteases. The following applies: HL-60 cells. The procedure:
(§1) Cells (5×10^6 cells) were harvested by centrifugation, washing in ice-cold phosphate-buffered saline and the pellets resuspended in 200 μl of harvesting buffer (20 mM Hepes, pH 7.5, 10% (w/v) sucrose, 0.1% (w/v) CHAPS, 2 mM dithiotreitol, 0.1% (v/v) Nonidet NP40, 1 mM sodium EDTA and 1 mM phenylmethylsulfonyl fluoride) supplemented with protease inhibitors (1 μg/ml pepstatin A and 1 μg/ml leupeptin). Following incubation on ice for 10 min, samples were passed up and down 10 times through a 21 gauge needle. Following a further incubation on ice for 10 min the homogenates were centrifuged at 20,000 g for 20 min and the resulting supernatants used to measure caspase 3 activity. This enzyme activity was determined by a fluorometric assay using the substrate Ac-DEVD-AMC, which is cleaved by caspase 3 to release the fluorescent leaving group, amino-4-methyl coumarin (AMC). Enzyme extracts (50 μg) were incubated with 100 mM Hepes, pH 7.5, containing 10% (w/v) sucrose, 0.1% (w/v) CHAPS, 10 mM dithiotreitol and 20 μM substrate in a total reaction volume of 3 ml. Following incubation for 60 min at 25° C., fluorescence was monitored continuously using a spectrofluorimeter (excitation wavelength 380 nm, emission wavelength 460 nm). The amount of AMC released was determined by comparison with a standard curve generated with known amounts of AMC.

The subject of a further assay is caspase 3. As for the experimental part:
as §1

The test system of a further assay is p38. The assay is described as follows: Western blot of p38 activation in K562 cells. The following applies: K562, 5 min up to 8 hours.
The next assay relates to JNK1 and JNK2. To be noted: K562 cells.
The subject of another assay is MCF-7 cells. Kind of assay: Apoptosis in MCF-7 cells. The procedure:
MCF-7 cells were maintained in minimum essential medium supplemented with non-essential amino acids (1% v/v), glutamine (1 mM), FCS (10%) and sub-cultured by the protocol described for Hela cells.
In all experiments performed, cells were seeded at a density of 3×10^5 cells/ml into 24-well plates (1 ml well) and immediately treated with the indicated compound. All drugs were diluted from freshly prepared ethanol stock solutions. The final concentration of ethanol in the wells was always 1% (vol/vol); a concentration which by itself had no effect on the cells tested. Following exposure to the appropriate drug, the cells (100 μL) were cytospun onto glass slides pre-coated with poly-L-lysine using a Cytospin 3™ cytocentrifuige (Shandon). They were then stained using the Rapi-Diff kit (eosinm ethylene blue) under the conditions described by the manufacturer. The percent apoptosis and necrosis was determined by counting approximately 300 cells under a light microscope with the aid of a graticule inserted into the eyepiece. At least 3 fields of view per slide, with an average of approximately 100 cells per field, were counted.

In assay [1] the test system is CML cell lines K562, KYO.1 and Lama 84. The assay is described as follows: Apoptosis in CML cell lines, cytospin and staining. To be noted: 24 hours (10 μM elsewhere in the source).

`CN(C)C(=O)OC1=C(c2cccc3ccccc23)Oc2ccccc2-n2cccc21` [PBOX-6, 7-((Dimethylcarbamoyl)oxy)-6-(1-naphthyl)pyrrolo[2,1-d][1,5]benzoxazepine]: in the assay with Cytochrome C, the “cytochrome C levels in the cytosol” value was “unchanged”. For the same compound, the “effect on NFκB” value in the assay with NFκB is “had no effect on NFκB”. For the same compound, the “time at which caspase 3-like protease activity became evident” value in the assay with caspase 3-like proteases was determined as 6 h. Further, the “activation of caspase 3-like proteases” value in the assay on caspase 3-like proteases (DEVD-AMC substrate) is recorded as “dose-dependent activation of caspase 3-like proteases”. For the same compound, the “caspase 3 activation” value with caspase 3 (K562 and Lama 84, 16 hours) is “activated”. In addition, in the assay on caspase 3 (KYO.1 cells), the “caspase 3 activation” value is on record as “not detected”. Moreover, in the assay with p38, the “activation of p38” value is given as “failed to activate p38”. Further, in the assay on JNK1 and JNK2, the “time at which JNK activation first becomes visible” value is 15 min and the “time of peak JNK activation” value lay in the range of 30 to 45 min. Further, the “concentration at which morphological features of apoptosis were first observed” value with MCF-7 cells turned out to be 5 μM. Further, the “cells that had undergone apoptosis” value in assay [1] is recorded as “approximately 50%”.
